Test results taken from patent EP1009837B1 (priority 1997, dated 1999).

Columns and labels:
S. cerevisiae = details: typical low concentration; background statement; cited from earlier work
FY23Δpet191 = system: FY23Δpet191
Experimental: (§1) Strain-specific ethanol tolerances were determined in batch cultures in specially adapted 100ml Erienmeyer flasks (called Klett Flasks) in combination with the Klett Summerson colorimeter and a green filter (Klett Summerson, USA). Cultures were grown to early exponential phase overnight and then split into 18ml aliquots to which 2ml of either sterile distilled water or ethanol solution were added to the aliquots giving final concentrations of 0, 2,3,4,6 and 10% (w/v) ethanol. Each concentration was carried out in triplicate and hourly measurements were made of cell density. A 1ml sample was extracted from the flask, diluted and plated onto YPD for a viable cell count. The remainder of the sample was centrifuged (15,000 rpm, 4°C, 5 min) and the supernatant frozen for subsequent analysis of ethanol concentration by GC.
(§2) All four members of the isogenic series (FY23WT, FY23Δpet191, FY23Δcox5a and FY23ρ^0) were grown in batch culture at 30°C and ethanol, at various concentrations, was introduced at the beginning of the exponential phase. Cell growth was followed for eight hours measuring optical densities with a Klett meter.
(§3) Graphs were plotted of loge Klett units against elapsed time and linear regression analysis was performed to calculate culture specific growth rates, µ. The effect of ethanol on the growth rate of the 4 members of the series was analysed by comparing relative growth rates at each ethanol concentration, and calculating these as a percentage of the growth rate in the absence of ethanol.
(§4) Ethanol inhibition kinetics are thought to follow those of non-competitive inhibition and can be modeled using a variant of the Monod equation. From the specific growth rate values calculated, it is possible to determine values of Ki by inserting them into the rearranged equation [µm/µi - 1 = I. 1/Ki]. […] The initial values of µ calculated are µapparent values determined from the growth of a culture containing both living and dead cells.

FY23ρ^0 = system: FY23ρ^0
Experimental: as §1, §2, §3, §4

FY23Δcox5a = system: FY23Δcox5a
Experimental: as §1, §2, §3, §4

FY23WT = details: strain FY23WT (grande parent); batch culture 30°C; exogenous ethanol 0-10% (w/v); µ corrected for viability
Experimental: as §1, §2, §3, §4

Compound | concentration to which S. cerevisiae is sensitive (S. cerevisiae) | Ki as percentage of the wild-type value (FY23Δpet191; FY23Δpet191, Ki relative to FY23WT) | Ki (true growth rate) (FY23Δpet191; strain FY23Δpet191 (nuclear petite), batch culture 30°C, µ corrected for viability) | ethanol tolerance relative to FY23 WT (FY23ρ^0; mitochondrial petite, Ki as percentage of FY23WT) | Ki (true growth rate) (FY23ρ^0; strain FY23ρ^0 (mitochondrial petite), batch culture 30°C, µ corrected for viability) | ethanol tolerance relative to the wild-type strain (FY23Δcox5a; FY23Δcox5a, Ki as percentage of FY23WT) | Ki (true growth rate) (FY23Δcox5a; strain FY23Δcox5a (nuclear petite), batch culture 30°C, µ corrected for viability) | Ki (true growth rate) (FY23WT)
C[C@@H]1C[C@@H]([C@H](O)CC2CC(=O)NC(=O)C2)C(=O)[C@@H](C)C1 [cycloheximide] | ~0.2 µg/mL | – | – | – | – | – | – | –
CCO [ethanol] | – | approximately 95% | 2.14 % (w/v) | 76% | 1.71 % (w/v) | 86% | 1.94 % (w/v) | 2.30 % (w/v)
